From patent US20150086695A1, “SWEETENER COMPOSITION, SWEETENER PRODUCTS, AND METHODS OF SWEETENING” (Almendra Americas, LLC, priority 2013, published 2015)

Tested on: trained expert panelists
Assay: Sensory panel scaling of taste attributes on 0-15 scales (formulation study ballot)
Format: in vivo, human
Settings: 0-15 scale; for Bitterness Intensity @ 2 Min (Bitter2) / Numbing/Tingling Sensation @ 2 Min (Numb/Ting2) / Sweetness Intensity @ 2 Min (Sweet2): at 2 minutes; for Bitterness Intensity @ 2 Min (Bitter2) / Numbing/Tingling Sensation @ 2 Min (Numb/Ting2) / Sweetness Intensity @ 2 Min (Sweet2) / Astringency Intensity (Astring) / Bitterness Intensity (IB) / Mouthfeel (Mfeel) / Numbing/Tingling Sensation (Numb/Ting) / Soapiness (Soap) / Sweetness Intensity Initial (Sweetness) / Sweetness Onset/Appearance Time (Onset): defined calibration rating, Sucrose Reference 10.0% sucrose, REB A Reference 500 PPM, both in 0.1% citric acid
Excerpt: Tongue numbing can also manifest itself as “tongue tingling”. These non-sugar-like characteristics appear inter-related in the sense that formulation as well as temperature changes affect the perception of several of them. Another taste characteristic of steviol glycosides, particularly those with relatively low levels of REB A, is soapiness, a characteristic that results from the surfactant portion of the molecule. To quantify all of these sensory effects by existing methods would require an expert sensory panel and at least 4 different sensory tests (i.e., C/R Function Determination, Flavor Profile Analysis, Temporal Profile Analysis and Adaptation Profile Analysis). However, to address a need for rapid screening of HP sweetener formulations, Prakash et al., described a scaling technique to quantify all of these sensory percepts in a single test (reference shown below under the table). An improvement of this methodology is described below.
Prior to the evaluation of test samples, all panelists must first calibrate themselves on Sucrose and Reference Samples (e.g., REB A) to ensure that they are able to appropriately scale taste attributes of interest. These Reference Samples are to be available in ample quantities for all experimental sessions. The Sucrose Reference is 10.0% sucrose acidified with 0.1% citric acid. For illustration purposes, an example of a Reference Sample can be a REB A Reference Sample that has 500 PPM REB A in the same system for general formula optimization studies.
Take a ca. 15 mL sample of the Sucrose Reference into the mouth swishing it around vigorously and note all attributes of the sensory experience. After ca. 10 sec, expectorate the sample and immediately rinse vigorously with ca. 15 mL of water, expectorating the rinse water. Over the next 2 minutes, while minimizing tongue movement in the mouth, pay attention to any rebound or intensification in perceived sweetness, bitterness, or numbing/tingling sensation. The intensity of the attribute perceived at 2 minutes is an estimate of its lingering tendency. Upon completion of calibration with the Sucrose Reference, calibration with the REB A Reference is carried out in the same way. The attribute ratings for the Sucrose and REB A References, all on 0-15 scales, are defined as follows: […]
After completion of reference sample calibrations, as well as in follow up of all sample tests, rinse the mouth vigorously with ca. 15 mL portions of the Sucrose Reference solution and two ca. 15 mL portions of water in effort to get the sensory system back to baseline. […]

## C=C1C[C@@]23CC[C@H]4[C@@](C)(CCC[C@@]4(C)C(=O)O[C@@H]4O[C@H](CO)[C@@H](O)[C@H](O)[C@H]4O)[C@@H]2CC[C@]1(O[C@@H]1O[C@H](CO)[C@@H](O)[C@H](O[C@@H]2O[C@H](CO)[C@@H](O)[C@H](O)[C@H]2O)[C@H]1O[C@@H]1O[C@H](CO)[C@@H](O)[C@H](O)[C@H]1O)C3 [REB A100, rebaudioside A]
  Bitterness Intensity @ 2 Min (Bitter2): 2
  Numbing/Tingling Sensation @ 2 Min (Numb/Ting2): 2
  Sweetness Intensity @ 2 Min (Sweet2): 3
  Astringency Intensity (Astring): 0
  Bitterness Intensity (IB): 3
  Mouthfeel (Mfeel): 0
  Numbing/Tingling Sensation (Numb/Ting): 0
  Soapiness (Soap): 1
  Sweetness Intensity Initial (Sweetness): 10
  Sweetness Onset/Appearance Time (Onset): 3

## OC[C@H]1O[C@@](CO)(O[C@H]2O[C@H](CO)[C@@H](O)[C@H](O)[C@H]2O)[C@@H](O)[C@@H]1O [Sucrose, sucrose]
  Bitterness Intensity @ 2 Min (Bitter2): 0
  Numbing/Tingling Sensation @ 2 Min (Numb/Ting2): 0
  Sweetness Intensity @ 2 Min (Sweet2): 0
  Astringency Intensity (Astring): 0
  Bitterness Intensity (IB): 0
  Mouthfeel (Mfeel): 10
  Numbing/Tingling Sensation (Numb/Ting): 0
  Soapiness (Soap): 0
  Sweetness Intensity Initial (Sweetness): 10
  Sweetness Onset/Appearance Time (Onset): 0
Example 9, REBA100 500 mg/L in 0.1% citric acid, two panelists
  scores on all lingering attributes: 0
